Laboratory results: patent US8710045B2, “Agents for preventing and treating disorders involving modulation of the ryanodine receptors” (The Trustees of Columbia University in the City of New York, priority 2004, dated 2014)
Read-outs that look alike come from different tables or passages of the source.

Experiments:
L-type Ca2+ channels = molecular target: T1, L-type Ca2+ channels (Mus musculus, UniProt Q01815); experiment: L-type Ca2+ channel current, whole-cell patch clamp in isolated mouse cardiomyocytes; type: cell-based; details: Ba2+ as charge carrier
T1 construct: currents through L-type Ca^2+ channels in isolated mouse cardiomyocytes are recorded; endogenous in cells; host or cells: isolated mouse cardiomyocytes
Procedure: The final pellets are pooled and resuspended in imidazole buffer (final concentration≈10 μg/μl). […] Immunoblots are developed using an anti-FKBP antibody (1:3,000 dilution). The amount of rebinding is quantified using densitometry of Western blots and is compared to the amount of FKBP associated with RyR in non-phosphorylated SR. […] K2ATP, 5; HEPES, 10; aspartic acid, 50; pH 7.4 (CsOH). […] Drugs are applied by a local solution changer and reach the cell membrane within 1 s.

RyR1 = molecular target: T2, RyR1 (Mus musculus, UniProt E9PZQ0); experiment: RyR1 immunoprecipitation from soleus muscle after 21 days of exercise, calstabin1 western blot; type: in vivo; details: subcutaneous mini-osmotic pump
T2 construct: RyR1 was immunoprecipitated from soleus muscle homogenates of mice following 21 days of exercise; from tissue; host or cells: mouse hind-limb skeletal muscle (soleus, EDL; SR microsomes for bilayer recording)
Procedure: RyR1 was immunoprecipitated from soleus muscle homogenates of mice following 21 days of exercise with or without simultaneous subcutaneous mini-osmotic pump treatment with S36 and then western blotted back for RyR1, phospho-epitope specific RyR1-pS2844, and calstabin1 bound to the RyR1 macromolecular complex.
The samples were incubated with protein A Sepharose beads (Amersham Pharmacia) at 4° C. for 1 h, after which the beads were washed three times with buffer. Proteins were separated on SDS PAGE gels (6% for RyR2 and 15% for calstabin2) and transferred onto nitrocellulose membranes overnight (SemiDry transfer blot, Bio-Rad). After incubation with 5% nonfat milk to prevent non-specific antibody binding and a wash in Tris-buffered saline with 0.1% Tween-20, membranes were incubated for 1-2 h at room temperature with primary antibodies anti-calstabin (1:1,000), anti-RyR (5029; 1:5,000), or anti-phospho-RyR2-pSer2809 (1:5,000), which detects PKA-phosphorylated mouse RyR1-pSer2844 and RyR2-pSer2808. After three washes, membranes were incubated with horseradish peroxidase-labeled anti-rabbit IgG (1:5,000, Transduction Laboratories, Lexington, Ky.), and developed with an enhanced chemiluminescent detection system (Amersham Pharmacia). Band densities were quantified by using QUANTITY ONE software (Bio-Rad).

hERG = hERG (Homo sapiens, UniProt Q12809); experiment: hERG current, manual whole-cell patch clamp in hERG-transfected HEK 293 cells (Example 5); type: cell-based; design: expressed in transfected cells; host or cells: HEK 293; details: human, HEK 293 cells stably transfected with hERG cDNA
Procedure: (§1) Electrophysiological recordings (using the whole-cell patch clamp method) were performed at room temperature (18° C.-24° C.). Each cell acted as its own control. The effect of ARM0036 was evaluated at two concentrations: 10 and 100 μM. Each concentration was tested in at least three cells (n≧3). 90 nM Cisapride (commercially available from TOCRIS Bioscience) was used as a positive control for hERG blockade. For recording, cells were transferred to the recording chamber and superfused with vehicle control solution. The patch pipette solution for whole cell recording contained 130 mM potassium aspartate, 5 mM MgCl2, 5 mM EGTA, 4 mM ATP and 10 mM HEPES. The pH was adjusted to 7.2 with KOH. The pipette solution was prepared in batches, aliquoted, and stored frozen. A fresh aliquot was thawed and used each day. Patch pipettes were made from glass capillary tubing using a P-97 micropipette puller (Sutter Instruments, Novato, Calif.). A commercial patch clamp amplifier was used for whole cell recordings. Before digitization, current records were low-pass filtered at one-fifth of the sampling frequency.

hERG current = hERG current (Homo sapiens, UniProt Q12809); experiment: as above; type: cell-based; design: expressed in transfected cells; host or cells: HEK 293
Procedure: as §1

C57BL/6J mice = experiment: Morris water maze spatial learning in exercised mice; type: in vivo, mouse; details: end of 21-day testing period, p approximately 0.2, n=8
Procedure: 16 wild type C57BL/6J 3-month-old mice, pairwise-matched for sex, age, and body weight, were randomized to either S 107 treatment (10 mg/ml; 0.25 μl/hr subcutaneous osmotic pump) or “vehicle” (25% DMSO in dH2O) treatment groups.
Mice were sacrificed after 21 days for performing biochemistry, calcium imaging and ex vivo function studies.
The layout of the water maze system consists of a circular water tank divided into four quadrants (labeled 1 thru 4 in FIG. 58, with four hidden platforms (labeled 5 to 8 in FIG. 58). The following protocol was followed: Day 1: mice trained to find “hidden” platform with visible marker on platform from random starting location. On days 2-4, the visible cue was removed, and mice were repeatedly challenged to find hidden platform at target 5 in quadrant 1. The time taken for each mouse to reach the target, i.e. the “latency,” was recorded. On day 5, the previous day's protocol was repeated, then the hidden platform was removed, and each mouse's movements recorded to quantify time in various target regions. The protocol was repeated in week 2.
The platform was then removed, and the swimming pattern of the mice was assessed at the end of the 21-day testing period.

FDB muscle fibers = experiment: Confocal calcium imaging of isolated FDB muscle fibers during fatigue protocol; type: in vivo, mouse; details: FDB fibers from treated, chronically exercised mice
Procedure: Confocal microscopy: Single flexor digitorum brevis (FDB) fibers were enzymatically dissociated by standard methods (Reiken, Lacampagne et al. 2003). Briefly, the muscle was dissected from the paw, placed in a modified Ringer's solution, and stripped of all fascia. Type 1 collagenase-(2 mg/ml, Sigma) in Ringer's solution was prepared fresh, and the muscle was digested for 2 hours at 37° C. in a incubator shaking at 125 rpm. The muscle was placed in fresh Ringer's and gently triturated. Single fibers were collected and allowed to attach to glass coverslips coated in laminin (Sigma L-2020). The cells were loaded with 2 μM fluo-4-AM ester (Invitrogen) for 20 minutes, placed on the Zeiss Live 5 microscope stage and superfused for 15 minutes with Ringer's. The fibers were paced at 1 Hz for 10 minutes prior to imaging baseline fiber properties. Linescan images were continuously acquired at 1 ms scan rate during a tetanic sequence consisting of 300 ms stimulation at 100 Hz with a 2 Hz train rate. Images were analyzed in ImageJ, and an F/F0 ratio was calculated for each fiber.
Reduced fatiguability in calstabin1 rebound FDB muscle fibers: Flexor digitorum brevis (FDB) muscle fibers were enzymatically dissociated from mice following the chronic exercise protocol and loaded with the calcium indicator fluo-4. […] The kinetics of Ca^2+ release and reuptake during single twitches at 1 Hz were assessed.

Sequence of hERG (Q12809 whole entry, the tested form may be a part): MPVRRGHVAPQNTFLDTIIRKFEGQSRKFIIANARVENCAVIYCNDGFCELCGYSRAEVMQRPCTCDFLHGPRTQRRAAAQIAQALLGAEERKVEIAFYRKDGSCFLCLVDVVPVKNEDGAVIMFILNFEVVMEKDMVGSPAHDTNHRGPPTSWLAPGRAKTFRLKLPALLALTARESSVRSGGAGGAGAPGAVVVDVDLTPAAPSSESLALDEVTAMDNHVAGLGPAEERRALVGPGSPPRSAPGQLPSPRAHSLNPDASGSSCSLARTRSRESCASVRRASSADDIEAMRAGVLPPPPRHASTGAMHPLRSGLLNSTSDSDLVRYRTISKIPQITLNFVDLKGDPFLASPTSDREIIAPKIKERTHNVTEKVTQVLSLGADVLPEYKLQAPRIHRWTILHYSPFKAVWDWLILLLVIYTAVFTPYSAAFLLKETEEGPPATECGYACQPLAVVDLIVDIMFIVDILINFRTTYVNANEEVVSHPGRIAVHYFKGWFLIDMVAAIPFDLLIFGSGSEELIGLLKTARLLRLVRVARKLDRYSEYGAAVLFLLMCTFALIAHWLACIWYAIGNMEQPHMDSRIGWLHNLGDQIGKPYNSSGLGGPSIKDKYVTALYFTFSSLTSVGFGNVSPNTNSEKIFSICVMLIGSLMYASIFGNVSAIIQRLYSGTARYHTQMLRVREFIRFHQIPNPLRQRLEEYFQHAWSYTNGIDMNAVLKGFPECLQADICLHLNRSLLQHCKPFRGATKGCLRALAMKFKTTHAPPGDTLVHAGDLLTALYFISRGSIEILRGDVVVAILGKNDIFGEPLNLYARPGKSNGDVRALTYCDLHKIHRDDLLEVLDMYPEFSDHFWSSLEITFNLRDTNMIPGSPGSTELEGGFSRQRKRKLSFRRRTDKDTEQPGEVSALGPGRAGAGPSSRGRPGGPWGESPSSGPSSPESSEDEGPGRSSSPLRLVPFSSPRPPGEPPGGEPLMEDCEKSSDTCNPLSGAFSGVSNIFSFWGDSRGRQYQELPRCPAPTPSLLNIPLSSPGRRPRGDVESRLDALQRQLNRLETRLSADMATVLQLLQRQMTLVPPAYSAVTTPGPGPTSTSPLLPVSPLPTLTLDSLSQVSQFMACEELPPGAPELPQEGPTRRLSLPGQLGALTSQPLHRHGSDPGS
Sequence of hERG current (Q12809 whole entry): as the sequence (Q12809 whole entry, the tested form may be a part) above

COc1ccc2c(c1)CN(C(=O)C(=O)O)CCS2 [S36]
block of L-type Ca2+ channel current (ICa,L) (L-type Ca2+ channels): does not block
calstabin1 bound to RyR1 (RyR1): allows RyR1 to rebind calstabin1
inhibition at 10 µM (hERG; 10 μM, read-out: Mean percent inhibition of hERG current): 0.7%
inhibition at 100 µM (hERG; 100 μM, read-out: Mean percent inhibition of hERG current): 0.9%
inhibition at 100 µM (hERG; highest concentration tested (100 μM), read-out: hERG current inhibition at the highest concentration tested): < 50%
block of HERG K+ channel (IKr) (hERG current): does not block
effect on hERG outward tail current (hERG current; 100 μM): minimally reduced

COc1ccc2c(c1)CN(C)CCS2 [S107]
learning / persistence in Morris water maze probe (C57BL/6J mice): trend towards improved learning or increased persistence
peak tetanic calcium transients during fatigue protocol (FDB muscle fibers): delayed decline in peak tetanic calcium transients
